From patent US4687773A, “(+)-N-N-propylnorapomorphine and selective limbic activity” (priority 1985, dated 1987)
Counter-ions that a name gives are not always drawn. Like-named read-outs stand apart in the source and are kept apart here.

How the values were obtained:
Dopamine Receptors [1] = format: binding, calf; details: ligand [3H]ADTN (0.5 nM)
[2] = system: DA in the corpus striatum (basal ganglia); assay: Head posture (contralateral head deviation) after intrastriatal DA; format: in vivo, rat; details: intrastriatal DA 16 μg; aporphine 3 mg/kg systemic (route not given)
[3] = system: dopamine (DA) receptors in the basal ganglia (corpus striatum); assay: Stereotyped licking and gnawing behavior rating in the rat; format: in vivo
Text: Stereotypy: The mean stereotyped licking and gnawing behavioral rating scheme developed by Tarsy and Baldessarini^8 was used. […]
Stereotypy scores were rated for one hour as described in […]

Dopamine Receptors [4] = format: binding, calf; details: ligand [3H]APO (0.5 nM)
[5] = system: DA in the limbic system (nucleus accumbens septi); assay: Arousal (locomotor activity) induced by DA injected into nucleus accumbens septi; format: in vivo, rat; details: for activity counts (arousal induced by 16 μg DA in accumbens): 30 min, DA control 238 ± 38
Experimental: An experiment shown in Table 9 involves testing the effects of S(+) isomers of apomorphine (APO) and N-propylnorapomorphine (NPA) given systemically (intraperitoneally, ip), as well as S(+) methylenedioxy-N-propylnorapomorphine (MDO-NPA) given ip or orally (po, by orogastric intubation). […]. […] Activity was monitored for 30 min after injection of DA into the brain, which was done at 10 min after systemic dosing with an S(+)aporphine test compound.
Data are mean activity counts ± SEM (N = 6) for rats given DA into the
medial accumbens after pretreatment with an inhibitor of monoamine oxidas
(MA0), and monitored on EAM for 30 min (aporphine given 10 min before DA
systemicallyintraperitoneally [ip] or orally [po].

[6] = molecular target: T1, Dopamine (DA) sensitive adenylate cyclase (Rattus norvegicus, UniProt P18901); assay: Stimulation of formation of cyclic AMP in rat striatal homogenate; format: biochemical
T1 construct: homogenates of rat corpus striatum; from tissue; host or cells: rat corpus striatum homogenate
T1 sequence (P18901 whole entry): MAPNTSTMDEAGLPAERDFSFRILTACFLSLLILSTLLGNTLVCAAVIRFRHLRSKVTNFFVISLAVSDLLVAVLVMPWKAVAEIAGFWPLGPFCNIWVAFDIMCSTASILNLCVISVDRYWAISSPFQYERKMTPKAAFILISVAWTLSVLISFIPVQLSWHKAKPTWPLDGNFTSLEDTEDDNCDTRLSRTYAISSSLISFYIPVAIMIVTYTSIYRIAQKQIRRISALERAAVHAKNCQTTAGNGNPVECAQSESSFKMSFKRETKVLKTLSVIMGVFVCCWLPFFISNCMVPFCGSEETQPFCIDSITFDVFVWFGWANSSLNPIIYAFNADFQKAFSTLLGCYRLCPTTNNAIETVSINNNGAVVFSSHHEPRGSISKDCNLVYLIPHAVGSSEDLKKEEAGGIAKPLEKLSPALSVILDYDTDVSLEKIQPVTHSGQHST
Text: assayed in homogenates of corpus striatum obtained from rat brain. The
method of assay of the activity of DAsensitive adenylate cyclase by the
rate of formation of cAMP above a basal (no agonist) level is described
under Experimental Section. The data are mean values of cAMP levels in […]

[7] = molecular target: T2, rat liver catechol O-methyl-transferase (COMT) (Rattus norvegicus, UniProt P22734); assay: Isomeric substrate selectivity for rat liver COMT; format: biochemical
T2 construct: partially purified rat liver catechol O-methyl-transferase (COMT); from tissue; host or cells: rat liver, ammonium sulfate precipitation and dialysis
T2 sequence (P22734 1-221 isoform P22734-2): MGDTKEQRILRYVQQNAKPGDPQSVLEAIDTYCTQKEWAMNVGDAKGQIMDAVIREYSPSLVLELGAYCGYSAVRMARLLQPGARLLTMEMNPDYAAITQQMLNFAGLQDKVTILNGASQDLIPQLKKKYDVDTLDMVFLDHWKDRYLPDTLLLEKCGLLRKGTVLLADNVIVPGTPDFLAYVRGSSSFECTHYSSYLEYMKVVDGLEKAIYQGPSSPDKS

[8] = system: dopamine (DA) receptors in the limbic system; assay: Locomotor activity (spontaneous or aroused by (-)APO / (-)NPA), electronic activity monitor; format: in vivo, rat; details: for Locomotion: Table 5; for effect on locomotor-arousal activity (in words): with or without (-) isomer, Hydrochloride
Experimental: (§1) Activity: Overall motor activity was measured by use of the self-recording Stoelting electronic activity monitor method described previously by Stewart, Campbell, Sperk, and Baldessarini^9. Total activity is obtained by setting monitor sensitivity so as to detect both locomotion and small movements (such as grooming, sniffing, and chewing) as would be prominent in stereotyped responses that tend to diminish locomotion and increase sniffing, licking, and chewing movements. Locomotor activity is detected selectively by setting monitor sensitivity to detect large, locomotor movements, and to minimize smaller movements already described.
Rats (mean N=6 per condition) were tested for locomotor activity for 60 min following a single dose of (-)APO (0.3 mg/kg, SC), or its vehicle ("placebo" condition). The S(+) isomers were administered in a range of doses from 0 or 0.1 to 30 mg/kg, SC immediately following injection of (-)APO or its vehicle. Data are presented in FIG. 2 as mean EAM activity counts per hour SEM. In that figure, the dashed line labeled "control" represents the mean activity of rats given vehicle only and no aporphine (SD values are indicated by parallel light lines above and below the control mean).
Test agents (11substituted-N--propylnoraporphine isomers were given at a
dose of 3 mg/kg, ip (in 2 ml/kg) just prior to (-)apomorphine (APO, at 0.
mg/kg, ip, in 1 ml/kg) to rats (N = 6) tested in an electronic activity

[9] = system: dopamine (DA) receptors in the limbic system and basal ganglia; assay: Total motor activity, electronic activity monitor (EAM); format: in vivo, rat
Experimental: as §1
All data presented in the Tables below are expressed as the mean results from 4-6 rats per condition, ±S.E.M. Stereotypy is expressed in rating units (maximum=3.0) and activity is expressed in arbitrary units of percent change, derived from EAM counts per unit time, relative to activity in control (saline) animals set at zero.
All the posttreatment doses of (+)APO were 3.0 mg/kg, s.c. The data
All posttreatment doses of (+)NPA were 3 mg/kg, s.c. The data are similar

[10] = Table 5, (+)NPA 3 mg/kg s.c. after (-)NPA 0.3 mg/kg
[11] = Table 5, (+)NPA 3 mg/kg s.c. after (-)NPA 3.0 mg/kg
[12] = Table 5, (+)NPA 3 mg/kg s.c., (-)NPA 0
[13] = 2.5 min, read-out: cAMP production, % of control

CCCN1CCc2cccc3c2[C@@H]1Cc1ccc(O)c(O)c1-3 [(+)NPA, (S)-N-n-Propylnorapomorphine Hydrochloride]
IC50 (Dopamine Receptors [1]): 60 nM | Contralateral Head Deviation, Percent of Total [2]: 66.7% of Total | Contralateral Head Deviation, Time [2]: 480 ± 44 s | Stereotyped behavior induced by (-)APO, Percent of Control ([3]; (+)NPA 3 mg/kg IP after (-)APO 0.3 mg/kg IP): 100.0 ± 10.6% of Control | Stereotyped behavior induced by (-)APO, Percent of Control ([3]; (+)NPA 5 mg/kg IP after (-)APO 0.3 mg/kg IP): 100.0 ± 12.3% of Control | Stereotyped behavior induced by (-)APO, Percent of Control ([3]; (+)NPA 30 mg/kg IP after (-)APO 0.3 mg/kg IP): 102.6 ± 8.9% of Control | Stereotypy Score ([3]; Table 1, (+)NPA 5 mg/kg s.c. ± (-)APO 3 mg/kg s.c. (printed first: (+)NPA), maximum 3.0): 2.9 ± 0.1 rating units | Stereotypy Score ([3]; Table 1, (+)NPA 5 mg/kg s.c. ± (-)NPA 3 mg/kg s.c. (printed first: (+)NPA), maximum 3.0): 2.9 ± 0.2 rating units | Stereotypy Score ([3]; Table 1, (+)NPA 5 mg/kg, s.c., ± saline, maximum 3.0): 0.0 ± 0.0 rating units | Stereotypy Score ([3]; Table 1, (-)APO 3 mg/kg s.c. ± (+)NPA 5 mg/kg s.c. (printed first: (-)APO), maximum 3.0): 2.9 ± 0.1 rating units | Stereotypy Score ([3]; Table 1, (-)NPA 3 mg/kg s.c. ± (+)NPA 5 mg/kg s.c. (printed first: (-)NPA), maximum 3.0): 3.0 ± 0.0 rating units | Stereotypy Score ([3]; Table 3, 0.1 mg/kg, s.c., maximum 3.0): 0 rating units | Stereotypy Score ([3]; Table 3, 0.3 mg/kg, s.c., maximum 3.0): 0 rating units | Stereotypy Score ([3]; Table 3, 3.0 mg/kg, s.c., maximum 3.0): 0 rating units | Stereotypy Score ([3]; Table 3, 5.0 mg/kg, s.c., maximum 3.0): 0 rating units | Stereotypy Score [3, 10]: 1.7 ± 0.6 rating units | Stereotypy Score [3, 11]: 2.9 ± 0.8 rating units | Stereotypy Score [3, 12]: 0 rating units | stereotyped behavior (in words) ([3]; rat, in vivo): little effect on stereotyped gnawing | IC50 (Dopamine Receptors [4]): 66 nM | activity counts (arousal induced by 16 μg DA in accumbens) ([5]; 0.3 mg/kg ip): 139 ± 17 activity counts | activity counts (arousal induced by 16 μg DA in accumbens) ([5]; 1.0 mg/kg ip): 80 ± 11 activity counts | activity counts (arousal induced by 16 μg DA in accumbens) ([5]; 3.0 mg/kg ip): 54 ± 10 activity counts | ED50 ([5]; Rattus norvegicus, ip, read-out: ID50, ip, DA 16 μg in accumbens): 0.4 mg/kg | ID50 ([5]; ip, DA 16 μg in accumbens, hydrochloride): 0.45 mg/kg | times more potent than (+)APO as inhibitor of DA in the limbic system ([5]; vs (+)APO): 8 times | cAMP production ([6]; 10 μM): 2.95 ± 0.19 picomoles per 2.5 min | cAMP production ([6]; 100 μM): 3.19 ± 0.16 picomoles per 2.5 min | cAMP formation, % of control at 10 µM [6, 13]: 119% | cAMP formation, % of control at 100 µM [6, 13]: 129% | Vmax (range of two experiments) ([7]; footnote range): 10.2- 13.2 (pmol/assay)/h | Vmax ([7]; mean, substrate of rat liver COMT): 11.7 (pmol/assay)/h | Locomotion ([8]; (+)NPA 3 mg/kg s.c. after (-)NPA 0.3 mg/kg): 14.8 ± 2.6 percent change | Locomotion ([8]; (+)NPA 3 mg/kg s.c. after (-)NPA 3.0 mg/kg): 8.5 ± 0.6 percent change | Locomotion ([8]; (+)NPA 3 mg/kg s.c., (-)NPA 0): 0 percent change | ID50 to reduce the locomotor activating actions of (-)APO ([8]; s.c., (-)APO 0.3 mg/kg): 0.2 mg/kg | ID50, spontaneous locomotor arousal ([8]; spontaneous activity): 3 mg/kg | effect on locomotor-arousal activity (in words) [8]: dose-dependent inhibition of such activity of the R(-) aporphine | effect on locomotor-arousal activity (in words) ([8]; listed as (+)-N-n-propylnorapomorphine): marked motor-inhibitory effect | Total Activity ([9]; Table 3, 0.1 mg/kg, s.c.): 3.2 ± 1.1 percent change vs. placebo con | Total Activity ([9]; Table 3, 0.3 mg/kg, s.c.): -5.2 ± 3.1 percent change vs. placebo con | Total Activity ([9]; Table 3, 3.0 mg/kg, s.c.): -50.0 ± 18 percent change vs. placebo con | Total Activity ([9]; Table 3, 5.0 mg/kg, s.c.): -52.1 ± 21 percent change vs. placebo con | Total Activity [9, 10]: 18.8 ± 2.6 percent change | Total Activity [9, 11]: 156.7 ± 26 percent change | Total Activity [9, 12]: 0 percent change
